Species on record: Rattus norvegicus
Assay: Open TG-GATES - Regimen: Single
Type: toxicity, organism-based, Sprague-Dawley
Design: regimen Single, gender Male, age 6 weeks
Details: in vivo, po, route gavage; for APTT / Bas / Eos / Fbg / Hb / Ht / Lym / MCH / MCHC / MCV / Mono / Neu / PT / Plat / RBC / Ret / WBC: tissue Blood; for KIDNEY_L / KIDNEY_R / KIDNEY_TOTAL: tissue Kidney; for ALP / ALT / AST / CRE / Cl / DBIL / GLC / IP / K / LDH / Na / PL / RALB / TBIL / TC / TG / TP / gamma-GTP: tissue Plasma
[1] = 5 mg/kg, 3 h, dose level Middle
[2] = 5 mg/kg, 6 h, dose level Middle
[3] = 5 mg/kg, 9 h, dose level Middle
[4] = 5 mg/kg, 24 h, dose level Middle
[5] = 15 mg/kg, 24 h, dose level High

## COc1cc2c(c(OC)c1OC)-c1ccc(OC)c(=O)cc1[C@@H](NC(C)=O)CC2 [COLCHICINE]
[1]
  APTT: 16.4 s
  Bas: 0%
  Eos: 0.8%
  Fbg: 217.6 mg/dL
  Hb: 13.6 g/dL
  Ht: 41.3%
  Lym: 83.2%
  MCH: 21.9 pg
  MCHC: 32.8%
  MCV: 66.5 fL
  Mono: 7.2%
  Neu: 9.2%
  PT: 12.1 s
  Plat: 112.7 x10_4/uL
  RBC: 622 x10_4/ul
  Ret: 9.5%
  WBC: 111.5 x10_2/uL
  KIDNEY_L: 0.9 g
  KIDNEY_R: 1 g
  KIDNEY_TOTAL: 1.9 g
  ALP: 915.6 IU/L
  ALT: 52.6 IU/L
  AST: 119.2 IU/L
  CRE: 0.4 mg/dL
  Cl: 103.4 meq/L
  DBIL: 0.046 mg/dL
  GLC: 193.4 mg/dL
  IP: 9.1 mg/dL
  K: 4.5 meq/L
  LDH: 248 IU/L
  Na: 139 meq/L
  PL: 133.8 mg/dL
  RALB: 3.7 g/dL
  TBIL: 0.4 mg/dL
  TC: 79.6 mg/dL
  TG: 53 mg/dL
  TP: 5.5 g/dL
  gamma-GTP: 1 IU/L
[2]
  TERMINAL_BW: 218.4 g
  APTT: 17.4 s
  Bas: 0%
  Eos: 0.6%
  Fbg: 205.2 mg/dL
  Hb: 13.5 g/dL
  Ht: 41.4%
  Lym: 72.2%
  MCH: 21 pg
  MCHC: 32.6%
  MCV: 64.3 fL
  Mono: 10.8%
  Neu: 16.2%
  PT: 12.5 s
  Plat: 107.8 x10_4/uL
  RBC: 644.8 x10_4/ul
  Ret: 8.9%
  WBC: 105.2 x10_2/uL
  KIDNEY_L: 1 g
  KIDNEY_R: 1 g
  KIDNEY_TOTAL: 1.9 g
  ALP: 1038.4 IU/L
  ALT: 103.8 IU/L
  AST: 216.8 IU/L
  CRE: 0.5 mg/dL
  Cl: 103.2 meq/L
  DBIL: 0.048 mg/dL
  GLC: 180.2 mg/dL
  IP: 9.4 mg/dL
  K: 4.6 meq/L
  LDH: 340.6 IU/L
  Na: 139.6 meq/L
  PL: 118.4 mg/dL
  RALB: 3.7 g/dL
  TBIL: 0.4 mg/dL
  TC: 64 mg/dL
  TG: 35.2 mg/dL
  TP: 5.5 g/dL
  gamma-GTP: 1 IU/L
[3]
  TERMINAL_BW: 217.1 g
  APTT: 16.7 s
  Bas: 0%
  Eos: 1%
  Fbg: 207.8 mg/dL
  Hb: 13.6 g/dL
  Ht: 41.3%
  Lym: 67.4%
  MCH: 21.5 pg
  MCHC: 32.9%
  MCV: 65.4 fL
  Mono: 12%
  Neu: 20.4%
  PT: 12.6 s
  Plat: 108.3 x10_4/uL
  RBC: 631.6 x10_4/ul
  Ret: 9.1%
  WBC: 93.9 x10_2/uL
  KIDNEY_L: 1 g
  KIDNEY_R: 1 g
  KIDNEY_TOTAL: 2 g
  ALP: 1040.6 IU/L
  ALT: 165.4 IU/L
  AST: 290.6 IU/L
  CRE: 0.5 mg/dL
  Cl: 103.4 meq/L
  DBIL: 0.098 mg/dL
  GLC: 191.6 mg/dL
  IP: 8.8 mg/dL
  K: 5.1 meq/L
  LDH: 265.2 IU/L
  Na: 137 meq/L
  PL: 137.6 mg/dL
  RALB: 3.7 g/dL
  TBIL: 0.4 mg/dL
  TC: 79.2 mg/dL
  TG: 32 mg/dL
  TP: 5.4 g/dL
  gamma-GTP: 2.2 IU/L
[4]
  TERMINAL_BW: 226.2 g
  APTT: 16.3 s
  Bas: 0%
  Eos: 1%
  Fbg: 208.6 mg/dL
  Hb: 13.6 g/dL
  Ht: 41.5%
  Lym: 78.4%
  MCH: 21.6 pg
  MCHC: 32.8%
  MCV: 65.8 fL
  Mono: 9.8%
  Neu: 10.8%
  PT: 11.2 s
  Plat: 117.7 x10_4/uL
  RBC: 631.6 x10_4/ul
  Ret: 7.6%
  WBC: 120.4 x10_2/uL
  KIDNEY_L: 1 g
  KIDNEY_R: 1 g
  KIDNEY_TOTAL: 2 g
  ALP: 975.4 IU/L
  ALT: 65.4 IU/L
  AST: 110.6 IU/L
  CRE: 0.6 mg/dL
  Cl: 104 meq/L
  DBIL: 0.064 mg/dL
  GLC: 191.8 mg/dL
  IP: 5.3 mg/dL
  K: 4.7 meq/L
  LDH: 116 IU/L
  Na: 138 meq/L
  PL: 125.4 mg/dL
  RALB: 3.7 g/dL
  TBIL: 0.4 mg/dL
  TC: 71.2 mg/dL
  TG: 58 mg/dL
  TP: 5.6 g/dL
  gamma-GTP: 1.2 IU/L
15 mg/kg, 3 h, dose level High
  TERMINAL_BW: 219.9 g
  APTT: 17.2 s
  Bas: 0%
  Eos: 0.8%
  Fbg: 212.4 mg/dL
  Hb: 13.4 g/dL
  Ht: 40.8%
  Lym: 76.2%
  MCH: 21.9 pg
  MCHC: 33%
  MCV: 66.3 fL
  Mono: 13%
  Neu: 10%
  PT: 12.3 s
  Plat: 111.2 x10_4/uL
  RBC: 614.8 x10_4/ul
  Ret: 9.9%
  WBC: 105.1 x10_2/uL
  KIDNEY_L: 1 g
  KIDNEY_R: 1 g
  KIDNEY_TOTAL: 2 g
  ALP: 859.4 IU/L
  ALT: 59.8 IU/L
  AST: 152.8 IU/L
  CRE: 0.5 mg/dL
  Cl: 105.2 meq/L
  DBIL: 0.03 mg/dL
  GLC: 184.8 mg/dL
  IP: 9.3 mg/dL
  K: 4.6 meq/L
  LDH: 377.8 IU/L
  Na: 138.6 meq/L
  PL: 113.4 mg/dL
  RALB: 3.7 g/dL
  TBIL: 0.4 mg/dL
  TC: 75.2 mg/dL
  TG: 21.4 mg/dL
  TP: 5.6 g/dL
  gamma-GTP: 2.4 IU/L
15 mg/kg, 6 h, dose level High
  TERMINAL_BW: 220.6 g
  APTT: 17.3 s
  Bas: 0%
  Eos: 0.8%
  Fbg: 215 mg/dL
  Hb: 14.5 g/dL
  Ht: 44.5%
  Lym: 69.6%
  MCH: 21.2 pg
  MCHC: 32.7%
  MCV: 65 fL
  Mono: 6.2%
  Neu: 24%
  PT: 14.1 s
  Plat: 109.9 x10_4/uL
  RBC: 684.6 x10_4/ul
  Ret: 8.3%
  WBC: 68.3 x10_2/uL
  KIDNEY_L: 1 g
  KIDNEY_R: 1 g
  KIDNEY_TOTAL: 2 g
  ALP: 1105.6 IU/L
  ALT: 257.8 IU/L
  AST: 651.4 IU/L
  CRE: 0.5 mg/dL
  Cl: 104.2 meq/L
  DBIL: 0.1 mg/dL
  GLC: 174.8 mg/dL
  IP: 9.5 mg/dL
  K: 4.8 meq/L
  LDH: 1373 IU/L
  Na: 139.8 meq/L
  PL: 101.2 mg/dL
  RALB: 3.7 g/dL
  TBIL: 0.5 mg/dL
  TC: 66.8 mg/dL
  TG: 12.2 mg/dL
  TP: 5.5 g/dL
  gamma-GTP: 2 IU/L
15 mg/kg, 9 h, dose level High
  TERMINAL_BW: 217.2 g
  APTT: 17.8 s
  Bas: 0%
  Eos: 0.6%
  Fbg: 203.8 mg/dL
  Hb: 14.9 g/dL
  Ht: 45.2%
  Lym: 50.6%
  MCH: 21.1 pg
  MCHC: 32.8%
  MCV: 64.3 fL
  Mono: 12.2%
  Neu: 36.8%
  PT: 14.8 s
  Plat: 99 x10_4/uL
  RBC: 704.2 x10_4/ul
  Ret: 7.7%
  WBC: 52.6 x10_2/uL
  KIDNEY_L: 1 g
  KIDNEY_R: 1 g
  KIDNEY_TOTAL: 1.9 g
  ALP: 1469.6 IU/L
  ALT: 302.8 IU/L
  AST: 623.8 IU/L
  CRE: 0.5 mg/dL
  Cl: 101.8 meq/L
  DBIL: 0.3 mg/dL
  GLC: 171 mg/dL
  IP: 8.1 mg/dL
  K: 4.7 meq/L
  LDH: 1091.2 IU/L
  Na: 137 meq/L
  PL: 126 mg/dL
  RALB: 3.8 g/dL
  TBIL: 0.6 mg/dL
  TC: 86.2 mg/dL
  TG: 9.4 mg/dL
  TP: 5.5 g/dL
  gamma-GTP: 2 IU/L
[5]
  TERMINAL_BW: 208.7 g
  APTT: 18 s
  Bas: 0%
  Eos: 0.6%
  Fbg: 171 mg/dL
  Hb: 15.6 g/dL
  Ht: 47.7%
  Lym: 73.4%
  MCH: 20.5 pg
  MCHC: 32.9%
  MCV: 62.4 fL
  Mono: 9.8%
  Neu: 16.2%
  PT: 12.5 s
  Plat: 121.1 x10_4/uL
  RBC: 763.8 x10_4/ul
  Ret: 6.3%
  WBC: 78.2 x10_2/uL
  KIDNEY_L: 1 g
  KIDNEY_R: 1 g
  KIDNEY_TOTAL: 2 g
  ALP: 1599.2 IU/L
  ALT: 160.4 IU/L
  AST: 350.8 IU/L
  CRE: 0.6 mg/dL
  Cl: 104 meq/L
  DBIL: 0.1 mg/dL
  GLC: 176 mg/dL
  IP: 7.8 mg/dL
  K: 5.2 meq/L
  LDH: 172.4 IU/L
  Na: 136.8 meq/L
  PL: 116.4 mg/dL
  RALB: 3.3 g/dL
  TBIL: 0.5 mg/dL
  TC: 60.8 mg/dL
  TG: 16.8 mg/dL
  TP: 5.1 g/dL
  gamma-GTP: 1.4 IU/L

Reference: ChEMBL document CHEMBL3885861, “Open TG-GATES”
